# Laboratory results reported in ChEMBL document CHEMBL1201862, “PubChem BioAssay data set” (2004).
#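 Values below derive from 48-hour exposures of cells grown in 96-well plates, with endpoints linearly interpolated between the two concentrations bracketing the appropriate inhibition level. GI50 is the concentration that inhibits growth by half.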 Active and inactive are the calls of the source. No stated cut-off is given here; in the data, active = GI50 up to about 1.1 µM and inactive = higher.
# What was measured:
# Test in all cases: inhibition of tumour cell growth, NCI panel, 48 h
# [1] = system: NCI-H23
# [2] = system: OVCAR-8
# [3] = system: EKVX
# [4] = system: SW-620
# [5] = system: NCI-H460
# [6] = system: Hs-578T
# [7] = system: OVCAR-3
# [8] = system: UACC-62
# [9] = system: SK-MEL-2
# [10] = system: Malme-3M
# [11] = system: RXF 393
# [12] = system: MOLT-4
# [13] = system: OVCAR-4
# [14] = system: NCI/ADR-RES
# [15] = system: MDA-MB-231
# [16] = system: SK-MEL-28
# [17] = system: HCT-116
# [18] = system: SF-268
# [19] = system: A498
# [20] = system: TK-10
SMILES,GI50 [1],GI50 [2],GI50 [3],GI50 [4],GI50 [5],GI50 [6],GI50 [7],GI50 [8],GI50 [9],GI50 [10],GI50 [11],GI50 [12],GI50 [13],GI50 [14],GI50 [15],GI50 [16],GI50 [17],GI50 [18],GI50 [19],GI50 [20]
O=C1OC[C@H]2[C@@H]1[C@H]1O[C@@H]2C2=C(CCC2)C1=O,> 100 µM (inactive),> 100 µM (inactive),> 100 µM (inactive),> 100 µM (inactive),> 100 µM (inactive),> 100 µM (inactive),> 100 µM (inactive),> 100 µM (inactive),> 100 µM (inactive),> 100 µM (inactive),> 100 µM (inactive),1.11 µM (active),> 100 µM (inactive),> 100 µM (inactive),> 100 µM (inactive),> 100 µM (inactive),> 100 µM (inactive),> 100 µM (inactive),> 100 µM (inactive),> 100 µM (inactive)
Cc1ccc(S(=O)(=O)N(CCNC(=O)c2cccc(O)c2O)c2cc3c4c(c2)Oc2cccc5c2C4(C)c2c(cccc2O3)O5)cc1,> 100 µM (inactive),> 100 µM (inactive),37.4 µM (inactive),14.6 µM (inactive),> 100 µM (inactive),> 100 µM (inactive),6.52 µM (inactive),20.8 µM (inactive),> 100 µM (inactive),29.2 µM (inactive),,> 100 µM (inactive),> 100 µM (inactive),2.54 µM (inactive),21.7 µM (inactive),53.6 µM (inactive),28.8 µM (inactive),15.1 µM (inactive),58.6 µM (inactive),> 100 µM (inactive)
Cc1cc(C)n(C2OC(CO)C(O)C(O)C2O)c(=S)c1C#N (stereo not given),> 100 µM (inactive),> 100 µM (inactive),,> 100 µM (inactive),> 100 µM (inactive),> 100 µM (inactive),> 100 µM (inactive),> 100 µM (inactive),> 100 µM (inactive),> 100 µM (inactive),> 100 µM (inactive),> 100 µM (inactive),> 100 µM (inactive),> 100 µM (inactive),> 100 µM (inactive),> 100 µM (inactive),> 100 µM (inactive),> 100 µM (inactive),> 100 µM (inactive),> 100 µM (inactive)
COc1ccc(Nc2nc3ccc(C(F)(F)F)cc3nc2C(=O)O)cc1OC,24.4 µM (inactive),23.2 µM (inactive),36.2 µM (inactive),29.2 µM (inactive),21.2 µM (inactive),38.6 µM (inactive),17.9 µM (inactive),21.7 µM (inactive),17.2 µM (inactive),31.7 µM (inactive),29.6 µM (inactive),16.1 µM (inactive),40.6 µM (inactive),20.2 µM (inactive),37.9 µM (inactive),41.6 µM (inactive),25.9 µM (inactive),34.1 µM (inactive),27.9 µM (inactive),
Cc1ccc(C[N+](C)(C)N)cc1C,> 10 µM (inactive),> 10 µM (inactive),> 10 µM (inactive),> 10 µM (inactive),> 10 µM (inactive),> 10 µM (inactive),> 10 µM (inactive),> 10 µM (inactive),,> 10 µM (inactive),> 10 µM (inactive),> 10 µM (inactive),> 10 µM (inactive),> 10 µM (inactive),> 10 µM (inactive),> 10 µM (inactive),> 10 µM (inactive),> 10 µM (inactive),> 10 µM (inactive),> 10 µM (inactive)
O=C1/C(=C/c2n[nH]cc2-c2ccc(Cl)cc2)C(=O)N(c2ccccc2)C1c1ccccc1 (stereo not given),13.3 µM (inactive),,20.7 µM (inactive),18.3 µM (inactive),26.4 µM (inactive),9.4 µM (inactive),6.28 µM (inactive),11.5 µM (inactive),15.2 µM (inactive),22.9 µM (inactive),14.3 µM (inactive),16.9 µM (inactive),25.6 µM (inactive),21.6 µM (inactive),18.9 µM (inactive),17.7 µM (inactive),12.5 µM (inactive),13.7 µM (inactive),20.6 µM (inactive),27.5 µM (inactive)
CC(=O)N1C(=O)c2cc3ccccc3cc21,95.5 µM (inactive),> 100 µM (inactive),> 100 µM (inactive),> 100 µM (inactive),> 100 µM (inactive),> 100 µM (inactive),,> 100 µM (inactive),> 100 µM (inactive),,,,,> 100 µM (inactive),> 100 µM (inactive),> 100 µM (inactive),61.4 µM (inactive),> 100 µM (inactive),24.7 µM (inactive),> 100 µM (inactive)
Cc1c2cnccc2c(C)c2c1c1ccccc1n2CCCN,0.474 µM (active),0.259 µM (active),0.525 µM (active),0.0787 µM (active),,0.374 µM (active),,0.693 µM (active),0.721 µM (active),0.982 µM (active),0.301 µM (active),0.0843 µM (active),0.14 µM (active),0.299 µM (active),0.171 µM (active),0.857 µM (active),0.0929 µM (active),,0.871 µM (active),0.326 µM (active)
O=C1/C(=C/c2cccs2)NC(=S)N1CN1CCCC(CO)C1 (stereo not given),> 100 µM (inactive),> 100 µM (inactive),> 100 µM (inactive),> 100 µM (inactive),,> 100 µM (inactive),> 100 µM (inactive),> 100 µM (inactive),> 100 µM (inactive),> 100 µM (inactive),,> 100 µM (inactive),> 100 µM (inactive),> 100 µM (inactive),> 100 µM (inactive),> 100 µM (inactive),> 100 µM (inactive),> 100 µM (inactive),32.2 µM (inactive),> 100 µM (inactive)
CC1CN=C(Nc2ccccc2)S1 (stereo not given),> 100 µM (inactive),> 100 µM (inactive),> 100 µM (inactive),> 100 µM (inactive),> 100 µM (inactive),> 100 µM (inactive),> 100 µM (inactive),> 100 µM (inactive),> 100 µM (inactive),> 100 µM (inactive),> 100 µM (inactive),> 100 µM (inactive),,> 100 µM (inactive),> 100 µM (inactive),> 100 µM (inactive),> 100 µM (inactive),> 100 µM (inactive),> 100 µM (inactive),> 100 µM (inactive)
CCN(CCO)CC1COc2ccccc2O1 (stereo not given),> 100 µM (inactive),> 100 µM (inactive),> 100 µM (inactive),,> 100 µM (inactive),> 100 µM (inactive),> 100 µM (inactive),> 100 µM (inactive),,> 100 µM (inactive),> 100 µM (inactive),> 100 µM (inactive),> 100 µM (inactive),> 100 µM (inactive),> 100 µM (inactive),> 100 µM (inactive),> 100 µM (inactive),> 100 µM (inactive),> 100 µM (inactive),> 100 µM (inactive)
NC12c3c4cccc3Oc3cccc(c31)Oc1cccc(c12)O4,> 50 µM (inactive),> 50 µM (inactive),> 50 µM (inactive),> 50 µM (inactive),> 50 µM (inactive),31.3 µM (inactive),> 50 µM (inactive),> 50 µM (inactive),> 50 µM (inactive),,> 50 µM (inactive),> 50 µM (inactive),> 50 µM (inactive),> 50 µM (inactive),> 50 µM (inactive),> 50 µM (inactive),> 50 µM (inactive),> 50 µM (inactive),> 50 µM (inactive),
CCCC(=O)N1CCN(c2ccc3c(c2)OC(C)O3)CC1 (stereo not given),> 100 µM (inactive),> 100 µM (inactive),> 100 µM (inactive),> 100 µM (inactive),> 100 µM (inactive),> 100 µM (inactive),> 100 µM (inactive),> 100 µM (inactive),,> 100 µM (inactive),> 100 µM (inactive),> 100 µM (inactive),> 100 µM (inactive),> 100 µM (inactive),> 100 µM (inactive),> 100 µM (inactive),> 100 µM (inactive),> 100 µM (inactive),> 100 µM (inactive),> 100 µM (inactive)
COc1ccc(-c2c3c(n(C4OC(CO)C(O)C(O)C4O)c(=S)c2C#N)CCCC3)cc1 (stereo not given),> 100 µM (inactive),> 100 µM (inactive),> 100 µM (inactive),> 100 µM (inactive),> 100 µM (inactive),> 100 µM (inactive),> 100 µM (inactive),> 100 µM (inactive),> 100 µM (inactive),> 100 µM (inactive),> 100 µM (inactive),73.1 µM (inactive),> 100 µM (inactive),> 100 µM (inactive),> 100 µM (inactive),,> 100 µM (inactive),,> 100 µM (inactive),> 100 µM (inactive)
CC1OC(OC2C(O[C@H]3CC[C@@]4(C)C(=CC[C@H]5[C@@H]6C[C@@H]7O[C@]8(CC[C@@H](CO)CO8)[C@@H](C)[C@@H]7[C@@]6(C)CC[C@@H]54)C3)OC(CO)C(O)C2OC2OC(CO)C(O)C(O)C2O)C(O)C(O)C1O (stereo not given in full),2.01 µM (inactive),1.78 µM (inactive),2.07 µM (inactive),1.86 µM (inactive),1.78 µM (inactive),2.91 µM (inactive),,1.83 µM (inactive),2.03 µM (inactive),1.81 µM (inactive),1.53 µM (inactive),,1.91 µM (inactive),1.97 µM (inactive),1.79 µM (inactive),1.95 µM (inactive),1.65 µM (inactive),1.85 µM (inactive),2.01 µM (inactive),1.71 µM (inactive)
